According to patent US20100286285A1, “Pharmaceutical composition comprising oleaginous ointments and vitamin D or its derivatives in the solubilized state” (GALDERMA RESEARCH & DEVELOPMENT, priority 2005, published 2010):

Experiment: Maximum solubility of the active agent in various excipients
Type: physicochemical

- Sol max (in Arlamol E): 1.033 % w/w
- Sol max (in Cremophor RH40): 3.989 % w/w
- Sol max (in Ethanol 95): >20 % w/w
- Sol max (in Eutanol G): 0.322 % w/w
- Sol max (in IPP): 0.1654 % w/w
- Sol max (in Labrafil M1944CS): 0.936 % w/w
- Sol max (in Miglyol 812): 0.3167 % w/w
- Sol max (in PEG 400): 6.894 % w/w
- Sol max (in Primol 352): 0.0009 % w/w
- Sol max (in Propylene glycol): 2.3351 % w/w
- Sol max (in Sweet almond oil): 0.0932 % w/w
- Sol max (in Transcutol): >20 % w/w
Compound: CCCc1cc(C(O)(CC)CC)ccc1-c1cc(OCc2ccc(CO)c(CO)c2)ccc1CC [Active agent, {4-[6-ethyl-4′-(1-ethyl-1-hydroxypropyl)-2′-propylbiphenyl-3-yloxymethyl]-2-hydroxy-methylphenyl}methanol]
